Laboratory results reported in patent US20120053172A1 (Cooperatieve MIRzorg U.A., priority 2009, published 2012).
Where two headings read alike, the source gives them in different places.

Assays:
insulin secretion = conditions: comparable dosages; cited from earlier work
[1] = tested on: obese hyperinsulinaemic men; conditions: high-dose, 6 months, with moderate caloric restriction and lifestyle advice; cited from earlier work
[2] = tested on: hyperinsulinaemic obese subjects; conditions: 8-week weight-loss diet; 32 women, 3 men; cited from earlier work
obese men [3] = conditions: cited from earlier work
obese, healthy men = test: First study: open, uncontrolled 6 month Diazoxide insulin suppression and weight loss study
Description: Fourteen obese, healthy men were studied for 6 months in an open, uncontrolled study.
All subjects received dietary advice to reduce caloric intake to meet the calculated basal requirements for ideal body weight (based on the Harrison-Bennedict equation). They were also instructed to increase walking exercise to at least 30 minutes a day. […] Subsequently, the following data were recorded every month, for a period of 6 months: body weight, abdominal circumference, supine and upright blood pressure, the results of a two-day, 8-point HGM, and adverse effects.
DZX was increased every month until a maximum of 900 mg/day was reached or until side effects occurred.

[4] = tested on: hyperinsulinaemic patients; conditions: maximal 200 mg/day in three dosages, eight weeks; placebo 5.0 kg; cited from earlier work
obese men [5] = conditions: one week, cited from earlier work
obese men [6] = tested on: obese men
Description: The study was focused on detecting the early beneficial effects. […] Metformin was started in a dose of 850 mg twice daily, and was increased to 850 mg three times daily in the second week. All subjects received exercise training three times a week, and all were instructed to take a 30 minute walk after lunch and after dinner.
Dietary intake was reduced by about 30%, according to the calculation procedure described in example 1.
A total of 19 obese men with a BMI of 30-37.5 kg/m^2 participated in the study.

[7] = tested on: hyperinsulinaemic, non-diabetic adolescents; conditions: 850 mg twice daily for eight weeks; placebo 3.8%; cited from earlier work
adults = conditions: 2380±320 mg for six months; cited from earlier work
[8] = tested on: overweight patients with dyslipidemia; conditions: in vivo; cited from earlier work
[9] = after six months, mean dosage about 585 mg/day
[10] = oral 300 mg per day in three dosages

## CNC(=NS(=O)(=O)c1ccc(Cl)cc1)N1C[C@H](c2ccccc2)C(c2ccc(Cl)cc2)=N1 [Compound A, (4S)-3-(4-chlorophenyl)-N′-[(4-chlorophenyl)sulfonyl]-N-methyl-4-phenyl-4,5-dihydro-1-H-pyrazole-1-carboximidamide]
Insulin secretion
  inhibiting insulin secretion, compared with Diazoxide: more effective than Diazoxide

## CC1=NS(=O)(=O)c2cc(Cl)ccc2N1 [Diazoxide, 7-chloro-3-methyl-4H-1,2,4-benzothiadiazine-1,1-dioxide]
[1]
  weight reduction: relevant degree of weight reduction
[2]
  effect on weight loss: No effect
Obese men [3]; [9]
  body weight after treatment: about 103 kg
  plasma level of Diazoxide: about 49 mg/l
Obese men [3]; before treatment
  body weight at start: about 114 kg
obese, healthy men; 6 months
  body weight after treatment: 105.7 ± 3.8 kg
  other adverse effects: not observed
  waist circumference after treatment: 107.7±2.2 cm
obese, healthy men; 6 months, DEXA
  decrease of total body fat mass: 9.5 ± 1.9 kg
obese, healthy men; 6 months, mean daily dose 600±54 mg, P<0.001
  reduction of fasting insulin levels: 65%
obese, healthy men; 6 months, P<0.001
  change in total body fat mass: −23.3%
obese, healthy men; 6 months, P<0.01
  increase of fasting glucose: 0.8 ± 0.3 mmol/L
obese, healthy men; baseline
  body weight at baseline: 115.1 ± 3.4 kg
  waist circumference at baseline: 116.9±1.4 cm
[4]
  weight loss: 9.8 kg
Obese men [5]; oral 150 mg per day in three dosages
  effect on plasma glucose and insulin levels: no significant effect
Obese men [5]; oral 225 mg per day in three dosages
  effect on plasma glucose and insulin levels: no significant effect
Obese men [5]; [10]
  effect on fasting or postprandial glucose levels: without affecting fasting or postprandial glucose levels
  reduction of plasma insulin levels: about 20%
Obese men [6]; 2 months, mean±SEM, Diazoxide 100 mg twice then three times a day, Metformin 850 mg twice then three times daily
  decrease in fasting serum insulin: 42.4±17.7%
Obese men [6]; in vivo
  serum glucose level before treatment: 5.7 ± 0.2 mmol/L

## CN(C)C(=N)N=C(N)N [Metformin]
[7]
  weight loss: about 6.5%
adults
  weight reduction: 3.24%

## CCCCCCCCCCC[C@@H](C[C@@H]1OC(=O)[C@H]1CCCCCC)OC(=O)[C@H](CC(C)C)NC=O [Orlistat]
[8]
  (placebo-subtracted) net weight loss: ~3 kg

## Cc1c(C(=O)NN2CCCCC2)nn(-c2ccc(Cl)cc2Cl)c1-c1ccc(Cl)cc1 [Rimonanbant, Rimonabant]
[8]
  (placebo-subtracted) net weight loss: about 6 kg

## CC(C)CC(N(C)C)C1(c2ccc(Cl)cc2)CCC1 (stereo not drawn) [Sibutramine]
[8]
  (placebo-subtracted) net weight loss: about 5 kg
